# Source: ChEMBL document CHEMBL4371050, “Synthesis and evaluation of esterified Hsp70 agonists in cellular models of protein aggregation and folding” (Bioorg Med Chem, 2019)
# Active and inactive are the calls of the source. The rule behind the calls is not given here.
# System: Saccharomyces cerevisiae
# Assay: Agonist activity at Hsp40-stimulated yeast Hsp70 Ssa1 assessed as increase in Ssa1-mediated ATP hydrolysis at 100 uM preincubated for 5 mins followed by alpha-32P ATP addition and measured at 15 mins intervals for 1 hr by phosphorimaging analysis
# Settings: not given
row,Structure (SMILES),Activity
1,CC1=C(C(=O)OCc2ccccc2)C(c2ccc(Cl)cc2Cl)NC(=O)N1CCCC(=O)O (stereo not given),Active

# System: Saccharomyces cerevisiae
# Assay: Agonist activity at unfolded peptide CMLA-stimulated yeast Hsp70 Ssa1 assessed as increase in Ssa1-mediated ATP hydrolysis preincubated for 5 mins followed by alpha-32P ATP addition and measured at 15 min intervals for 1 hr by phosphorimaging analysis based single-turnover assay
# Settings: not given
row,Structure (SMILES),Activity
1,CC1=C(C(=O)OCc2ccccc2)C(c2ccc(Cl)cc2Cl)NC(=O)N1CCCC(=O)O (stereo not given),inactive
2,CC1=C(C(=O)OCc2ccccc2)C(c2ccc(Cl)cc2Cl)NC(=O)N1CCCC(=O)OCC#N (stereo not given),inactive

# Species on record: Homo sapiens
# Assay: Agonist activity at Hsp70 in human H4 cells expressing wild type alpha-synuclein (unknown origin) assessed as inhibition of alpha-synuclein aggregation by measuring increase in cells lacking alpha-synuclein inclusions at 100 uM after 24 hrs by epifluorescence microscopic analysis
# Assay type: cell-based
# Settings: not given
row,Structure (SMILES),Activity
1,COC(=O)CCCCN1C(=O)NC(c2ccc(Cl)cc2Cl)C(C(=O)OCc2ccccc2)=C1C (stereo not given),Active
2,CC1=C(C(=O)OCc2ccccc2)C(c2ccc(Cl)cc2Cl)NC(=O)N1CCCC(=O)O (stereo not given),Active
3,CC1=C(C(=O)OCc2ccccc2)C(c2ccc(Cl)cc2Cl)NC(=O)N1CCCC(=O)OCC#N (stereo not given),Active

# Species on record: Homo sapiens
# Assay: Agonist activity at Hsp70 in human H4 cells expressing wild type alpha-synuclein (unknown origin) assessed as inhibition of alpha-synuclein aggregation by measuring decrease in Triton X-100-insoluble alpha-synuclein in cells at 100 uM after 24 hrs by immunoblot analysis
# Assay type: cell-based
# Settings: not given
row,Structure (SMILES),inhibition
1,CC1=C(C(=O)OCc2ccccc2)C(c2ccc(Cl)cc2Cl)NC(=O)N1CCCC(=O)O (stereo not given),50%
2,CC1=C(C(=O)OCc2ccccc2)C(c2ccc(Cl)cc2Cl)NC(=O)N1CCCC(=O)OCC#N (stereo not given),30%

# System: HEK293
# Assay: Agonist activity at Hsp70 in HEK293 cells expressing CFTR F508del mutant (unknown origin) assessed as increase in steady-state levels of CFTR mutant at 30 uM after 24 hrs by immunoblot assay
# Assay type: cell-based
# Settings: Homo sapiens
row,Structure (SMILES),fold change (FC)
1,COC(=O)CCCCN1C(=O)NC(c2ccc(Cl)cc2Cl)C(C(=O)OCc2ccccc2)=C1C (stereo not given),0.9
2,CC1=C(C(=O)OCc2ccccc2)C(c2ccc(Cl)cc2Cl)NC(=O)N1CCCC(=O)O (stereo not given),2.1
3,CC1=C(C(=O)OCc2ccccc2)C(c2ccc(Cl)cc2Cl)NC(=O)N1CCCC(=O)OCC#N (stereo not given),1.7

# System: HEK293
# Assay: Agonist activity at Hsp70 in HEK293 cells expressing CFTR F508del mutant (unknown origin) assessed as increase in steady-state levels of CFTR mutant at 30 uM in presence of Hsp70 antagonist MAL3-101 after 24 hrs by immunoblot assay
# Assay type: cell-based
# Settings: Homo sapiens
row,Structure (SMILES),fold change (FC)
1,CC1=C(C(=O)OCc2ccccc2)C(c2ccc(Cl)cc2Cl)NC(=O)N1CCCC(=O)O (stereo not given),2.6

# System: HEK293
# Assay: Agonist activity at Hsp70 in HEK293 cells expressing CFTR F508del mutant (unknown origin) assessed as increase in steady-state levels of CFTR mutant at 100 uM after 24 hrs by immunoblot assay
# Assay type: cell-based
# Settings: Homo sapiens
row,Structure (SMILES),fold change (FC)
1,COC(=O)CCCCN1C(=O)NC(c2ccc(Cl)cc2Cl)C(C(=O)OCc2ccccc2)=C1C (stereo not given),1
2,CC1=C(C(=O)OCc2ccccc2)C(c2ccc(Cl)cc2Cl)NC(=O)N1CCCC(=O)OCC#N (stereo not given),1.4

# System: not listed separately
# Assay: Cytotoxicity against HEK293H cells after 24 hrs by CellTiter-Glo assay
# Assay type: cell-based
# Settings: human
row,Structure (SMILES),GI50
1,COC(=O)CCCCN1C(=O)NC(c2ccc(Cl)cc2Cl)C(C(=O)OCc2ccccc2)=C1C (stereo not given),> 100 µM
2,CC1=C(C(=O)OCc2ccccc2)C(c2ccc(Cl)cc2Cl)NC(=O)N1CCCC(=O)O (stereo not given),> 300 µM
3,CC1=C(C(=O)OCc2ccccc2)C(c2ccc(Cl)cc2Cl)NC(=O)N1CCCC(=O)OCC#N (stereo not given),> 100 µM

# System: not listed separately
# Assay: Cytotoxicity against HEK293H cells assessed as cell viability at 100 uM after 24 hrs by CellTiter-Glo assay
# Assay type: cell-based
# Settings: human
row,Structure (SMILES),Activity
1,COC(=O)CCCCN1C(=O)NC(c2ccc(Cl)cc2Cl)C(C(=O)OCc2ccccc2)=C1C (stereo not given),81%
2,CC1=C(C(=O)OCc2ccccc2)C(c2ccc(Cl)cc2Cl)NC(=O)N1CCCC(=O)O (stereo not given),87%
3,CC1=C(C(=O)OCc2ccccc2)C(c2ccc(Cl)cc2Cl)NC(=O)N1CCCC(=O)OCC#N (stereo not given),69%

# System: MCF7
# Assay: Cytotoxicity against human MCF7 cells after 24 hrs by CellTiter-Glo assay
# Assay type: cell-based
# Settings: mcf7, 24 h
row,Structure (SMILES),GI50
1,COC(=O)CCCCN1C(=O)NC(c2ccc(Cl)cc2Cl)C(C(=O)OCc2ccccc2)=C1C (stereo not given),> 100 µM
2,CC1=C(C(=O)OCc2ccccc2)C(c2ccc(Cl)cc2Cl)NC(=O)N1CCCC(=O)O (stereo not given),> 300 µM
3,CC1=C(C(=O)OCc2ccccc2)C(c2ccc(Cl)cc2Cl)NC(=O)N1CCCC(=O)OCC#N (stereo not given),> 100 µM

# System: MCF7
# Assay: Cytotoxicity against human MCF7 cells assessed as cell viability at 100 uM after 24 hrs by CellTiter-Glo assay
# Assay type: cell-based
# Settings: mcf7, 24 h
row,Structure (SMILES),Activity
1,COC(=O)CCCCN1C(=O)NC(c2ccc(Cl)cc2Cl)C(C(=O)OCc2ccccc2)=C1C (stereo not given),82%
2,CC1=C(C(=O)OCc2ccccc2)C(c2ccc(Cl)cc2Cl)NC(=O)N1CCCC(=O)O (stereo not given),110%
3,CC1=C(C(=O)OCc2ccccc2)C(c2ccc(Cl)cc2Cl)NC(=O)N1CCCC(=O)OCC#N (stereo not given),98%

# System: H4
# Assay: Induction of heat shock response in human H4 cells assessed as increase in DNAJB1 expression at 100 uM after 24 hrs by RT-PCR analysis relative to 18S RNA
# Assay type: cell-based
# Settings: h4, 24 h
row,Structure (SMILES),Activity
1,CC1=C(C(=O)OCc2ccccc2)C(c2ccc(Cl)cc2Cl)NC(=O)N1CCCC(=O)O (stereo not given),Non-Toxic

# System: H4
# Assay: Induction of heat shock response in human H4 cells assessed as increase in HSPA1A expression at 30 uM after 24 hrs by RT-PCR analysis relative to 18S RNA
# Assay type: cell-based
# Settings: h4, 24 h
row,Structure (SMILES),Activity
1,CC1=C(C(=O)OCc2ccccc2)C(c2ccc(Cl)cc2Cl)NC(=O)N1CCCC(=O)OCC#N (stereo not given),Non-Toxic

# System: H4
# Assay: Induction of heat shock response in human H4 cells assessed as increase in DNAJB1 expression at 30 uM after 24 hrs by RT-PCR analysis relative to 18S RNA
# Assay type: cell-based
# Settings: h4, 24 h
row,Structure (SMILES),Activity
1,CC1=C(C(=O)OCc2ccccc2)C(c2ccc(Cl)cc2Cl)NC(=O)N1CCCC(=O)OCC#N (stereo not given),Non-Toxic

# System: H4
# Assay: Induction of heat shock response in human H4 cells assessed as increase in BiP expression at 30 uM after 24 hrs by RT-PCR analysis relative to 18S RNA
# Assay type: cell-based
# Settings: h4, 24 h
row,Structure (SMILES),Activity
1,CC1=C(C(=O)OCc2ccccc2)C(c2ccc(Cl)cc2Cl)NC(=O)N1CCCC(=O)OCC#N (stereo not given),Non-Toxic

# System: H4
# Assay: Induction of heat shock response in human H4 cells assessed as increase in BiP expression at 100 uM after 24 hrs by RT-PCR analysis relative to 18S RNA
# Assay type: cell-based
# Settings: h4, 24 h
row,Structure (SMILES),Activity
1,CC1=C(C(=O)OCc2ccccc2)C(c2ccc(Cl)cc2Cl)NC(=O)N1CCCC(=O)O (stereo not given),Non-Toxic

# System: Saccharomyces cerevisiae
# Assay: Agonist activity at Hsp40-stimulated yeast Hsp70 Ssa1 assessed as turnover rate for increase in Ssa1-mediated ATP hydrolysis at 100 uM preincubated for 5 mins followed by alpha-32P ATP addition and measured at 15 mins intervals for 1 hr by phosphorimaging analysis
# Settings: not given
row,Structure (SMILES),Activity
1,CC1=C(C(=O)OCc2ccccc2)C(c2ccc(Cl)cc2Cl)NC(=O)N1CCCC(=O)O (stereo not given),0.08 min⁻¹

# System: Saccharomyces cerevisiae
# Assay: Agonist activity at yeast Hsp70 Ssa1 assessed as increase in Ssa1-mediated ATP hydrolysis preincubated for 5 mins followed by alpha-32P ATP addition and measured at 15 min intervals for 1 hr by phosphorimaging analysis based single-turnover assay
# Settings: not given
row,Structure (SMILES),Activity
1,CC1=C(C(=O)OCc2ccccc2)C(c2ccc(Cl)cc2Cl)NC(=O)N1CCCC(=O)O (stereo not given),inactive
2,CC1=C(C(=O)OCc2ccccc2)C(c2ccc(Cl)cc2Cl)NC(=O)N1CCCC(=O)OCC#N (stereo not given),inactive

# Species on record: Homo sapiens
# Assay: Agonist activity at Hsp70 in human H4 cells expressing wild type alpha-synuclein (unknown origin) assessed as inhibition of alpha-synuclein aggregation by measuring decrease in percentage of cells displaying 1 to 5 alpha-synuclein inclusions at 100 uM after 24 hrs by epifluorescence microscopic analysis
# Assay type: cell-based
# Settings: not given
row,Structure (SMILES),Activity
1,COC(=O)CCCCN1C(=O)NC(c2ccc(Cl)cc2Cl)C(C(=O)OCc2ccccc2)=C1C (stereo not given),Active
2,CC1=C(C(=O)OCc2ccccc2)C(c2ccc(Cl)cc2Cl)NC(=O)N1CCCC(=O)O (stereo not given),Active
3,CC1=C(C(=O)OCc2ccccc2)C(c2ccc(Cl)cc2Cl)NC(=O)N1CCCC(=O)OCC#N (stereo not given),Active

# System: H4
# Assay: Cytotoxicity against human H4 cells expressing wild type alpha-synuclein (unknown origin) assessed as reduction in cell viability after 24 hrs by CellTiter-Glo assay
# Assay type: cell-based
# Settings: h4, 24 h
row,Structure (SMILES),Activity
1,COC(=O)CCCCN1C(=O)NC(c2ccc(Cl)cc2Cl)C(C(=O)OCc2ccccc2)=C1C (stereo not given),Non-Toxic
2,CC1=C(C(=O)OCc2ccccc2)C(c2ccc(Cl)cc2Cl)NC(=O)N1CCCC(=O)O (stereo not given),Non-Toxic
3,CC1=C(C(=O)OCc2ccccc2)C(c2ccc(Cl)cc2Cl)NC(=O)N1CCCC(=O)OCC#N (stereo not given),Non-Toxic
